Experimental data as given in publication PMC9271792 (Frontiers in Endocrinology, 2022).
Entries after “also recorded” stand apart in the source; their conditions may differ.

Legend:
[1] = system: IRS-1 in L6 IR-A cells; assay: IRS-1 activation time-course (immunoprecipitation, pTyr20); type: cell-based, rat cells; human IR-A; conditions: 10 nM
Method: (§1) Figure 6 Cis-dicarba analogues are incapable of promoting IR-A internalization due to inability to promote phosphorylation of IR-A, IRS-1 and Shc. […] Data are presented as % of surface receptor/total receptor followed by normalisation with % of surface receptor in SFM at t = 0; i.e. SFM at t = 0 is equivalent to 100%. […] All data are the mean ± S.E.M. n = at least 3 independent experiments. Error bars are shown when greater than the size of the symbols. Statistical significance were determined via one-way repeated measures ANOVA followed by Dunnets multiple test.
Activated IRS-1 was determined using immunoprecipitation. Anti-IRS-1 antibody(4ug) was pre incubated with protein G agarose overnight at 4°C before adding to lysates to immunoprecipitate IRS-1 overnight at 4°C. Complexes were washed three times in PBS, boiled under reducing conditions and samples separated on 10% glycine gels. Transferred blots were blocked for 1 h at room temperature in TBST containing 3% BSA and probed with primary antibodies (anti-IRS-1 for total IRS-1 protein, or anti pTyr20 for total phosphorylated protein in immunoprecipitation) in blocking solution (TBST containing 3% BSA) overnight at 4°C. Blots were washed six times for 5 min each in TBST then probed with fluorophore-conjugated secondary antibodies (donkey anti-mouse 680RD and anti- rabbit 800CW) for 1 hour at room temperature. […]

[2] = system: ERK 1 / ERK 2 / p90RSK phosphorylation in L6 IR-A cells; assay: Western blot dose-response, MAPK pathway (ERK1, ERK2, p90RSK), L6 IR-A; type: cell-based, rat cells; human IR-A
Method: (§5) R/^-IR-B (80,000 cells/well) or L6 IR-A cells (240,000 cells/well) were seeded in 6-well plates and allowed to grow to confluence (~ 48 hours). Prior to stimulation, cells were serum starved in SFM/1% BSA for 4 h. […] Lysates were scraped from the well, spun at 13,000 rpm for 3 min at 0°C to remove cell debris and stored at -80°C. Lysate protein concentrations were quantified using Bio-Rad DC™ Protein Assay and 20μg of each sample was separated in 10% glycine gels under reducing conditions. Transferred blots were blocked for 1 h at room temperature in TBST containing 3% BSA and probed with primary antibodies (Pathscan Antibody, pAkt(Thr308), pGSK(Ser9), pAS160(Thr642)) in blocking solution (TBST containing 3% BSA) overnight at 4°C. All blots were also probed with anti-β-tubulin as a loading control. Blots were washed six times for 5 min each in TBST then probed with either HRP-conjugated (dose-response) or fluorophore-conjugated (time-course) secondary antibodies for 1 hour at room temperature. The washing was then repeated.
(§6) Dose response blots were developed in ECL reagent according to manufacturer’s instruction and imaged in Fujiflim LAS-4000 Luminescent Image Analyzer. […] All blots were performed at least three times. All data were analysed with LI-COR Image Studio™ software and each band intensity was normalized to tubulin of its respective lane.

[3] = system: Akt / GSK-3β / S6 / AS160 phosphorylation in R^-IR-B cells; assay: Western blot dose-response, PI3K/Akt pathway, R-IR-B fibroblasts; type: cell-based, mouse cells; human IR-B; conditions: 10 min, significant difference only at 0.1 nM (p* ≤ 0.05 to p** ≤ 0.01)
Method: (§7) R/^-IR-B (80,000 cells/well) or L6 IR-A cells (240,000 cells/well) were seeded in 6-well plates and allowed to grow to confluence (~ 48 hours). Prior to stimulation, cells were serum starved in SFM/1% BSA for 4 h. […] Lysates were scraped from the well, spun at 13,000 rpm for 3 min at 0°C to remove cell debris and stored at -80°C. Lysate protein concentrations were quantified using Bio-Rad DC™ Protein Assay and 20μg of each sample was separated in 10% glycine gels under reducing conditions. Transferred blots were blocked for 1 h at room temperature in TBST containing 3% BSA and probed with primary antibodies (Pathscan Antibody, pAkt(Thr308), pGSK(Ser9), pAS160(Thr642)) in blocking solution (TBST containing 3% BSA) overnight at 4°C. […]
(§8) Phosphorylation levels are expressed as percentage of level detected […]
(§9) were determined via 2-way ANOVA (bars above graph); difference comparing each stimulating concentration (pink asterisks) were further analyzed using Holm-Sidak test. ns: non-significant; * (P ≤ 0.05), ** (P ≤ 0.01); *** (P ≤ 0.001); **** (P ≤ 0.0001).

[4] = system: ERK 1/2 / p90RSK phosphorylation in L6 IR-A cells; assay: Western blot time-course, MAPK pathway, L6 IR-A; type: cell-based, rat cells; human IR-A; conditions: 10 nM, 0–30 min
Method: as §5
(§10) Dose response blots were developed in ECL reagent according to manufacturer’s instruction and imaged in Fujiflim LAS-4000 Luminescent Image Analyzer. Time course blots were imaged with an Odyssey® CLx Imaging System. All blots were performed at least three times. All data were analysed with LI-COR Image Studio™ software and each band intensity was normalized to tubulin of its respective lane.

[5] = system: mitogenic signalling; conditions: ref [9], [30]; cited from earlier work
[6] = system: Akt / GSK-3β / S6 phosphorylation in L6 IR-A cells; assay: Western blot time-course, PI3K/Akt pathway, L6 IR-A; type: cell-based, rat cells; human IR-A; conditions: 10 nM, 0–30 min, p-Akt Ser473, p-Akt Thr308, p-GSK3β, p-S6
Method: as §5, §10

[7] = system: Akt / GSK-3β / S6 / AS160 phosphorylation in L6 IR-A cells; assay: Western blot dose-response, PI3K/Akt pathway (Akt, GSK-3β, S6, AS160), L6 IR-A; type: cell-based, rat cells; human IR-A
Method: as §5, §6

[8] = target: T1, IGF-1R (Homo sapiens, UniProt P08069); conditions: ref [9]; cited from earlier work
T1 construct: expressed in transfected cells; host or cells: P6 cells (BALB/c3T3 mouse fibroblasts overexpressing human IGF-1R); Triton X-100 lysate captured on anti-IGF-1R antibody 24-31
From the text: (§2) This contrasts with cis-dicarba insulin which wa ...

[9] = system: IR-B; conditions: ref [9]; cited from earlier work
From the text: as §2

[10] = system: NIH3T3-L1 adipocytes; assay: Glucose uptake assay (2-deoxyglucose); type: cell-based; conditions: paired T-test; n = at least 3
Method: NIH3T3-L1 myoblasts (up to passage 20) grown in DMEM supplemented with 10% newborn calf serum, 2mM L-glutamine, 100 U/l penicillin, 100 µg/L streptomycin at 37°C were seeded into 24-well plates at 5 x 10^3 cells/well and grown for 8 days to confluence. They were then differentiated into adipocytes as described in Govers et al. ([51]). After differentiation the NIH3T3-L1 cells express 37,000 IGF-1R and 250,000 IR per cell ([52]). […] Briefly, 3T3-L1 adipocytes were serum starved in SFM/1% BSA for 4 h, washed twice with Krebs-Ringer phosphate buffer (KRP; 12.5mM HEPES, 120mM NaCl, 6mM KCl, 1.2mM MgSO4, 1mM CaCl2, 0.4mM Na2HPO4, 0.6mM Na2HPO4 (pH7.4)) containing 1% BSA and incubated for 15min at 37°C. […] For the final 10 min 2-deoxyglucose (DOG) uptake was initiated by the addition of 50 µM cold deoxyglucose and 1 µCi ^3H –deoxyglucose per well. The assay was terminated by rapidly washing the cells three times with ice-cold KRP buffer. Cells were solubilized in 0.5 M NaOH/0.1% SDS and ^3H content was determined by scintillation counting. Nonspecific 2-DOG uptake was determined in the presence of 50μM cytochalasin B. Assays were performed in triplicate in at least three independent experiments.

[11] = target: T2, IR isoform B (IR-B) (Homo sapiens, UniProt P06213); conditions: cis dicarba insulin, footnote b, ref [9], cited from earlier work
T2 construct: expressed in transfected cells; host or cells: R-IR-B cells (IGF-1R knockout mouse embryonic fibroblasts over-expressing human IR-B); Triton X-100 lysate captured on anti-IR antibody 83-7

[12] = target: T3, IR-A (phospho-Tyr1150/Tyr1151) (Homo sapiens, UniProt P06213); assay: IR-A phosphorylation Tyr1150/Tyr1151 time-course (western blot); type: cell-based; conditions: L6 IR-A, 10 nM, 0–10 min
T3 construct: expressed in transfected cells; host or cells: L6 rat skeletal myoblasts over-expressing human IR-A (hIR-A L6), from Novo Nordisk
From the text: (§3) All data are the mean ± S.E.M. n = at least 3 independent experiments. Error bars are shown when greater than the size of the symbols.

[13] = system: metabolic activity; conditions: ref [9], [30]; cited from earlier work
[14] = system: L6 rat skeletal myoblasts overexpressing human IR-A (L6 IR-A cells); assay: DNA synthesis assay (EdU incorporation); type: cell-based; conditions: 18 h, 0.01 - 300 nM, compared to native insulin
Method: (§4) Assays were performed in triplicate in at least three independent experiments.

[15] = target: T1, IGF-1R; conditions: cis dicarba insulin, footnote b; ref [9]; cited from earlier work
[16] = system: p52 Shc (phospho-Tyr239/Tyr240) in L6 IR-A cells; assay: p52 Shc phosphorylation time-course (western blot); type: cell-based, rat cells; human IR-A; conditions: 10 nM
Method: as §1
R/^-IR-B (80,000 cells/well) or L6 IR-A cells (240,000 cells/well) were seeded in 6-well plates and allowed to grow to confluence (~ 48 hours). Prior to stimulation, cells were serum starved in SFM/1% BSA for 4 h. […] Lysates were scraped from the well, spun at 13,000 rpm for 3 min at 0°C to remove cell debris and stored at -80°C. Lysate protein concentrations were quantified using Bio-Rad DC™ Protein Assay and 20μg of each sample was separated in 10% glycine gels under reducing conditions. […]
Dose response blots were developed in ECL reagent according to manufacturer’s instruction and imaged in Fujiflim LAS-4000 Luminescent Image Analyzer. […] All data were analysed with LI-COR Image Studio™ software and each band intensity was normalized to tubulin of its respective lane.

[17] = system: IR; conditions: ref [9], [30]; cited from earlier work
[18] = system: ERK 1 / ERK 2 / p90RSK phosphorylation in R^-IR-B cells; assay: Western blot dose-response, MAPK pathway, R-IR-B fibroblasts; type: cell-based, mouse cells; human IR-B; conditions: 0.1–100 nM, 10 min, 2-way ANOVA
Method: as §7, §8, §9

[19] = system: IR-A; assay: IR-A receptor internalization; type: cell-based, human; conditions: 10 nM, 2 hours post-stimulation
Method: as §3, §4

[20] = system: C57BL6 male mice; assay: Insulin tolerance test; type: in vivo, mouse; conditions: 0.75 IU/kg ip
[21] = system: IR; conditions: KIRA; compared to insulin; ref [9]; cited from earlier work
From the text: This is similar to the poorly mitogenic S597 peptide, which also promoted slowe ...

[22] = dose-response, compared to insulin

Substance: cis-[Δ^4A6,11]-dicarba human insulin [cis dicarba insulin]
- IRS-1 activation (in words) [1]: significantly less potent in activating both IRS-1 and Shc
- IRS-1 activation relative to insulin ([1]; 0–10 min, compared to insulin): ~ 30%
- phosphorylation of ERK 1, ERK 2 and p90RSK (in words) ([2]; 0.1–10 nM, t = 10 min, p* ≤ 0.05 to p**** ≤ 0.0001 vs parent): significantly reduced phosphorylation levels of ERK 1, ERK 2 and p90RSK
- p-p90RSK (S380), overall significance vs parent ([2]; L6 IR-A, 0.1–100 nM, 10 min, 2-way ANOVA): * (P ≤ 0.05)
- MAPK pathway activation (in words) [2, 22]: significantly less effective than insulin or glargine, respectively, in activating the MAPK pathway; also recorded: significantly less potent at activating the MAPK pathway
- Akt phosphorylation at Ser473 (in words) [3]: generally similar to their parent peptides
- MAPK signalling activation, ERK1/2 and p90RSK (in words) ([4]; compared to parent): lower level of activation of MAPK signalling
- ERK 1/2 phosphorylation maximal level (in words) ([4]; compared to parent peptides): never achieved the maximal level attained through stimulation by their corresponding parent peptides
- mitogenic response (in words) [5]: poor at activating a mitogenic response
- kinetics of activation of the PI3K/Akt pathway (in words) [6]: essentially the same
- Akt phosphorylation at Ser473 (in words) ([7]; L6 IR-A, 10 min, significant difference only at 0.1 nM (p* ≤ 0.05 to p** ≤ 0.01)): generally similar to their parent peptides
- PI3K/Akt pathway activation (in words) [7, 22]: equal potency in activating the PI3K/Akt pathway
- binding and activation of IGF-1R (in words) [8]: equipotent to insulin in both binding and activation of IR-B and IGF-1R
- binding and activation of IR-B (in words) [9]: equipotent to insulin in both binding and activation of IR-B and IGF-1R
- glucose uptake, significance of difference between insulin, cis-dicarba insulin and cis-dicarba glargine [10]: ns
- Affinity (% Insulin ± SEM), IR-B ([11]; non-statistically significant): 100 % Insulin
- IC50 [11]: 1.07 ± 0.3 nM
- IR-A Tyr1150/Tyr1151 phosphorylation (in words) [12]: much slower to stimulate receptor activation; also recorded: reduced kinetics of activation compared to insulin
- IR-A Tyr1150/Tyr1151 phosphorylation, response relative to insulin ([12]; % of that of insulin): ~ 20%
- metabolic activity (in words) [13]: promotes equivalent metabolic activity
- DNA synthesis, fold reduction in mitogenic potency vs native insulin [14]: ~ 5 fold
- Affinity (% Insulin ± SEM), IGF-1R [15]: ~100 % Insulin
- IC50 [15]: > 300 nM
- Shc activation (in words) [16]: significantly less potent in activating both IRS-1 and Shc
- Shc activation relative to insulin ([16]; 0–10 min, compared to insulin): ~ 30%
- IR binding (in words) [17]: binds the IR with equal affinity to insulin
- p-Erk 1 (T202/Y204), overall significance vs parent [18]: * (P ≤ 0.05)
- IR-A internalization (in words) [19]: significantly impaired ability to promote IR-A internalization, with virtually all receptor remaining on the surface 2 hours post-stimulation; also recorded: ineffective in promoting IR internalisation
- blood glucose lowering (in words) ([20]; chow fed mice, non-fasting, 2 hours post-treatment): no statistical difference
- blood glucose change, significance vs parent (AUC) ([20]; insulin vs cis-dicarba insulin, glargine vs cis-dicarba glargine, paired T-test, n = 5-6 per group): ns
- total receptor phosphorylation in kinase receptor activation assay (in words) [21]: almost as potent as insulin in a kinase receptor activation assay
